From patent publication US10219516B2, “Molecules having pesticidal utility, and intermediates, compositions, and processes, related thereto” (priority 2015, dated 2019)

Assays:
Format in all cases: in vivo
[1] = test system: Yellow Fever Mosquito (Aedes aegypti, AEDSAE); assay: Bioassay on Yellow Fever Mosquito (YFM), 96-well plate larval assay; settings: Species YFM (Yellow Fever Mosquito)
Procedure, shortened: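 Each well was scored for mortality after 3 days at room temperature under a non-evaporative lid. Test molecules came from DMSO masters (4000 ppm stock) diluted with water/acetone 90:10 and dispensed into six replicate plates, which were then infested with roughly 1-day-old larvae in liver-powder water.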

[2] = test system: Beet Armyworm (Spodoptera exigua, LAPHEG); assay: Bioassay on Beet Armyworm (BAW), 128-well diet tray assay; settings: Species BAW (Beet Armyworm), read-out: BAW (Biological Results, rating)
Procedure, shortened: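 Percent mortality, averaged across eight replicate wells, was scored after five to seven days at 25° C. under a 14:10 light-dark cycle. Each well's diet carried 50 μg/cm^2 of the dried test molecule and held one to five second instar larvae.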

[3] = test system: Cabbage Looper (Trichoplusia ni, TRIPNI); assay: Bioassay on Cabbage Looper (CL), 128-well diet tray assay; settings: Trichoplusia ni; Species CL (Cabbage Looper); read-out: CL (Biological Results, rating)
Procedure, shortened: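 Percent mortality, averaged across eight replicate wells, was scored after five to seven days at 25° C. under a 14:10 light-dark cycle. Each well held one to five second instar larvae on artificial diet treated at 50 μg/cm^2 with compound from 90:10 acetone-water, allowed to dry before infestation.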

## Cc1cc(NC(=O)OC(C)(C)C)ccc1NC(=O)c1cc(NC(=O)[C@H]2[C@H](c3ccc(Cl)c(Cl)c3)C2(Cl)Cl)ccc1Cl [F277, tert-Butyl (4-(2-chloro-5-((1R,3R)-2,2-dichloro-3-(3,4-dichlorophenyl)cyclopropane-1-carboxamido)benzamido)-3-methylphenyl)carbamate]
[1]
  YFM (Biological Results, rating): A (80-100)
[2]
  pest or weed control at 50 µg/cm2: 50 to 100%
[3]
  pest or weed control at 50 µg/cm2: 50 to 100%

## O=C(Nc1ccc(F)cc1F)c1cc(NC(=O)[C@H]2[C@H](c3cc(Cl)c(Cl)c(Cl)c3)C2(Cl)Cl)ccc1Cl [F281, 2-Chloro-5-((1R,3R)-2,2-dichloro-3-(3,4,5-trichlorophenyl)cyclopropane-1-carboxamido)-N-(2,4-difluorophenyl)benzamide]
[1]
  YFM (Biological Results, rating): A (80-100)
[2]
  pest or weed control at 50 µg/cm2: 50 to 100%
[3]
  pest or weed control at 50 µg/cm2: 50 to 100%

## O=C(Nc1ccc(F)cc1F)c1cc(NC(=O)[C@@H]2[C@@H](c3cc(Cl)c(Cl)c(Cl)c3)C2(Cl)Cl)ccc1Cl [F282, 2-Chloro-5-((1S,3S)-2,2-dichloro-3-(3,4,5-trichlorophenyl)cyclopropane-1-carboxamido)-N-(2,4-difluorophenyl)benzamide]
[1]
  YFM (Biological Results, rating): A (80-100)
[2]
  pest or weed control at 50 µg/cm2: 50 to 100%
[3]
  pest or weed control at 50 µg/cm2: 50 to 100%

## Cc1cc(N)ccc1NC(=O)c1cc(NC(=O)[C@H]2[C@H](c3cc(Cl)cc(Cl)c3)C2(Cl)Cl)ccc1Cl [F283, N-(4-Amino-2-methylphenyl)-2-chloro-5-((1R,3R)-2,2-dichloro-3-(3,5-dichlorophenyl)cyclopropane-1-carboxamido)benzamide]
[1]
  YFM (Biological Results, rating): A (80-100)
[2]
  pest or weed control at 50 µg/cm2: 50 to 100%
[3]
  pest or weed control at 50 µg/cm2: 50 to 100%

## Cc1cc(N)ccc1NC(=O)c1cc(NC(=O)[C@@H]2[C@@H](c3cc(Cl)cc(Cl)c3)C2(Cl)Cl)ccc1Cl [F284, N-(4-Amino-2-methylphenyl)-2-chloro-5-((1S,3S)-2,2-dichloro-3-(3,5-dichlorophenyl)cyclopropane-1-carboxamido)benzamide]
[1]
  YFM (Biological Results, rating): A (80-100)
[2]
  pest or weed control at 50 µg/cm2: 50 to 100%
[3]
  pest or weed control at 50 µg/cm2: 50 to 100%

## Cc1cc(N)ccc1NC(=O)c1cc(NC(=O)[C@H]2[C@H](c3ccc(Cl)c(Cl)c3)C2(Cl)Cl)ccc1Cl [F285, N-(4-Amino-2-methylphenyl)-2-chloro-5-((1R,3R)-2,2-dichloro-3-(3,4-dichlorophenyl)cyclopropane-1-carboxamido)benzamide]
[1]
  YFM (Biological Results, rating): A (80-100)
[2]
  pest or weed control at 50 µg/cm2: 50 to 100%
[3]
  pest or weed control at 50 µg/cm2: 50 to 100%

## Cc1cc(N)ccc1NC(=O)c1cc(NC(=O)[C@H]2[C@H](c3cc(Cl)c(Cl)c(Cl)c3)C2(Cl)Cl)ccc1Cl [F286, N-(4-Amino-2-methylphenyl)-2-chloro-5-((1R,3R)-2,2-dichloro-3-(3,4,5-trichlorophenyl)cyclopropane-1-carboxamido)benzamide]
[1]
  YFM (Biological Results, rating): A (80-100)
[2]
  pest or weed control at 50 µg/cm2: 50 to 100%
[3]
  pest or weed control at 50 µg/cm2: 50 to 100%

## Cc1cc(NC(=O)OC(C)(C)C)ccc1NC(=O)c1cc(NC(=O)[C@H]2[C@H](c3ccc(F)c(Cl)c3)C2(Cl)Cl)ccc1Cl [F290, tert-Butyl (4-(2-chloro-5-((1R,3R)-2,2-dichloro-3-(3-chloro-4-fluorophenyl)cyclopropane-1-carboxamido)benzamido)-3-methylphenyl)carbamate]
[1]
  YFM (Biological Results, rating): A (80-100)
[2]
  pest or weed control at 50 µg/cm2: 50 to 100%
[3]
  pest or weed control at 50 µg/cm2: 50 to 100%

## Cc1cc(N)ccc1NC(=O)c1cc(NC(=O)[C@H]2[C@H](c3ccc(F)c(Cl)c3)C2(Cl)Cl)ccc1Cl [F291, N-(4-Amino-2-methylphenyl)-2-chloro-5-((1R,3R)-2,2-dichloro-3-(3-chloro-4-fluorophenyl)cyclopropane-1-carboxamido)benzamide]
[1]
  YFM (Biological Results, rating): A (80-100)
[2]
  pest or weed control at 50 µg/cm2: 50 to 100%
[3]
  pest or weed control at 50 µg/cm2: 50 to 100%

## O=C(Nc1ncc(F)cc1F)c1cc(NC(=O)[C@H]2[C@H](c3ccc(Cl)c(Cl)c3)C2(Cl)Cl)ccc1Cl [F310, 2-Chloro-5-((1R,3R)-2,2-dichloro-3-(3,4-dichlorophenyl)cyclopropane-1-carboxamido)-N-(3,5-difluoropyridin-2-yl)benzamide]
[1]
  YFM (Biological Results, rating): A (80-100)
[2]
  pest or weed control at 50 µg/cm2: 50 to 100%
[3]
  pest or weed control at 50 µg/cm2: 50 to 100%

## O=C(Nc1ncc(F)cc1F)c1cc(NC(=O)[C@H]2[C@H](c3cc(Cl)c(Cl)c(Cl)c3)C2(Cl)Cl)ccc1Cl [F311, 2-Chloro-5-((1R,3R)-2,2-dichloro-3-(3,4,5-trichlorophenyl)cyclopropane-1-carboxamido)-N-(3,5-difluoropyridin-2-yl)benzamide]
[1]
  YFM (Biological Results, rating): A (80-100)
[2]
  pest or weed control at 50 µg/cm2: 50 to 100%
[3]
  pest or weed control at 50 µg/cm2: 50 to 100%

## Nc1c(F)ccc(NC(=O)c2cc(NC(=O)[C@H]3[C@H](c4cc(Cl)cc(Cl)c4)C3(Cl)Cl)ccc2Cl)c1F [F313, N-(3-Amino-2,4-difluorophenyl)-2-chloro-5-((1R,3R)-2,2-dichloro-3-(3,5-dichlorophenyl)cyclopropane-1-carboxamido)benzamide]
[1]
  YFM (Biological Results, rating): A (80-100)
[2]
  pest or weed control at 50 µg/cm2: 50 to 100%
[3]
  pest or weed control at 50 µg/cm2: 50 to 100%

## Nc1c(F)ccc(NC(=O)c2cc(NC(=O)[C@H]3[C@H](c4ccc(Cl)c(Cl)c4)C3(Cl)Cl)ccc2Cl)c1F [F314, N-(3-Amino-2,4-difluorophenyl)-2-chloro-5-((1R,3R)-2,2-dichloro-3-(3,4-dichlorophenyl)cyclopropane-1-carboxamido)benzamide]
[1]
  YFM (Biological Results, rating): A (80-100)
[2]
  pest or weed control at 50 µg/cm2: 50 to 100%
[3]
  pest or weed control at 50 µg/cm2: 50 to 100%

## Nc1c(F)ccc(NC(=O)c2cc(NC(=O)[C@H]3[C@H](c4cc(Cl)c(Cl)c(Cl)c4)C3(Cl)Cl)ccc2Cl)c1F [F315, N-(3-Amino-2,4-difluorophenyl)-2-chloro-5-((1R,3R)-2,2-dichloro-3-(3,4,5-trichlorophenyl)cyclopropane-1-carboxamido)benzamide]
[1]
  YFM (Biological Results, rating): A (80-100)
[2]
  pest or weed control at 50 µg/cm2: 50 to 100%
[3]
  pest or weed control at 50 µg/cm2: 50 to 100%

## O=C(Nc1ncc(F)cc1F)c1cc(NC(=O)[C@H]2[C@H](c3ccc(F)c(Cl)c3)C2(Cl)Cl)ccc1Cl [F316, 2-Chloro-5-((1R,3R)-2,2-dichloro-3-(3-chloro-4-fluorophenyl)cyclopropane-1-carboxamido)-N-(3,5-difluoropyridin-2-yl)benzamide]
[1]
  YFM (Biological Results, rating): A (80-100)
[2]
  pest or weed control at 50 µg/cm2: 50 to 100%
[3]
  pest or weed control at 50 µg/cm2: 50 to 100%

## Nc1c(F)ccc(NC(=O)c2cc(NC(=O)[C@H]3[C@H](c4ccc(F)c(Cl)c4)C3(Cl)Cl)ccc2Cl)c1F [F317, N-(3-Amino-2,4-difluorophenyl)-2-chloro-5-((1R,3R)-2,2-dichloro-3-(3-chloro-4-fluorophenyl)cyclopropane-1-carboxamido)benzamide]
[1]
  YFM (Biological Results, rating): A (80-100)
[2]
  pest or weed control at 50 µg/cm2: 50 to 100%
[3]
  pest or weed control at 50 µg/cm2: 50 to 100%

## Nc1cc(C(F)(F)F)cc(NC(=O)c2cc(NC(=O)C3C(c4cc(Cl)cc(Cl)c4)C3(Cl)Cl)ccc2Cl)n1 (stereo not drawn) [F328, N-(6-Amino-4-(trifluoromethyl)pyridin-2-yl-2-chloro-5-(trans-2,2-dichloro-3-(3,5-dichlorophenyl)cyclopropane-1-carboxamido)benzamide]
[1]
  YFM (Biological Results, rating): A (80-100)
[2]
  pest or weed control at 50 µg/cm2: 50 to 100%
[3]
  pest or weed control at 50 µg/cm2: 50 to 100%

## Nc1cc(NC(=O)c2cc(NC(=O)[C@H]3[C@H](c4cc(Cl)cc(Cl)c4)C3(Cl)Cl)ccc2Cl)c(F)cc1F [F353, N-(5-Amino-2,4-difluorophenyl)-2-chloro-5-((1R,3R)-2,2-dichloro-3-(3,5-dichlorophenyl)cyclopropane-1-carboxamido)benzamide]
[1]
  YFM (Biological Results, rating): A (80-100)
[2]
  pest or weed control at 50 µg/cm2: 50 to 100%
[3]
  pest or weed control at 50 µg/cm2: 50 to 100%

## Nc1cc(NC(=O)c2cc(NC(=O)[C@H]3[C@H](c4ccc(Cl)c(Cl)c4)C3(Cl)Cl)ccc2Cl)c(F)cc1F [F354, N-(5-Amino-2,4-difluorophenyl)-2-chloro-5-((1R,3R)-2,2-dichloro-3-(3,4-dichlorophenyl)cyclopropane-1-carboxamido)benzamide]
[1]
  YFM (Biological Results, rating): A (80-100)
[2]
  pest or weed control at 50 µg/cm2: 50 to 100%
[3]
  pest or weed control at 50 µg/cm2: 50 to 100%

## O=C(Nc1cncc([N+](=O)[O-])c1)c1cc(NC(=O)[C@H]2[C@H](c3cc(Cl)cc(Cl)c3)C2(Cl)Cl)ccc1Cl [F358, 2-Chloro-5-((1R,3R)-2,2-dichloro-3-(3,5-dichlorophenyl)cyclopropane-1-carboxamido)-N-(5-nitropyridin-3-yl)benzamide]
[1]
  YFM (Biological Results, rating): A (80-100)
[2]
  pest or weed control at 50 µg/cm2: 50 to 100%
[3]
  pest or weed control at 50 µg/cm2: 50 to 100%

## O=C(Nc1cncc([N+](=O)[O-])c1)c1cc(NC(=O)[C@H]2[C@H](c3ccc(Cl)c(Cl)c3)C2(Cl)Cl)ccc1Cl [F359, 2-Chloro-5-((1R,3R)-2,2-dichloro-3-(3,4-dichlorophenyl)cyclopropane-1-carboxamido)-N-(5-nitropyridin-3-yl)benzamide]
[1]
  YFM (Biological Results, rating): A (80-100)
[2]
  pest or weed control at 50 µg/cm2: 50 to 100%
[3]
  pest or weed control at 50 µg/cm2: 50 to 100%

## Nc1c(F)cc(F)cc1NC(=O)c1cc(NC(=O)[C@H]2[C@H](c3cc(Cl)cc(Cl)c3)C2(Cl)Cl)ccc1Cl [F360, N-(2-Amino-3,5-difluorophenyl)-2-chloro-5-((1R,3R)-2,2-dichloro-3-(3,5-dichlorophenyl)cyclopropane-1-carboxamido)benzamide]
[1]
  YFM (Biological Results, rating): A (80-100)
[2]
  pest or weed control at 50 µg/cm2: 50 to 100%
[3]
  pest or weed control at 50 µg/cm2: 50 to 100%
